The target of experiment [1] is T1, HIV-1 RT-associated RNase H activity, P225A RT (Human immunodeficiency virus type 1 group M subtype B, UniProt P04585, P812A).
T1 construct: The 1:1 ration between the p66/p51 subunits was also verified; made in house; host or cells: E. coli M15
Nature of the experiment: RNase H activity assay, P225A RT. Format: biochemical, HIV-1 group M subtype B. Conditions: for Fold of increase of RNase H IC50 with respect to wt RT: P225A RT. The protocol: (§1) HIV RT-associated RNase H activity was measured as described in 100 μL reaction volume containing 50 mM Tris-HCl buffer pH 7.8, 6 mM MgCl2, 1 mM dithiothreitol (DTT), 80 mM KCl, 0.25 μM hybrid RNA/DNA 5'-GAUCUGAGCCUGGGAGCU-Fluorescin-3' (HPLC, dry, QC: Mass Check) (available from Metabion) 5'-Dabcyl-AGCTCCCAGGCTCAGATC-3'(HPLC, dry, QC: Mass Check), increasing concentrations of inhibitors, whose dilution were made in water, and different amount of enzymes according to a linear range of dose-response curve: 20 ng of WT RT; 60 ng K103N RT; 37.5 ng V106A RT; 75 ng V108A RT; 5 ng Y181C RT; 50 ng Y188A RT; 30 ng Y188L RT; 100 ng E224A RT; 37.5 ng P225A RT; 20 ng P226A RT; 18 ng F227A RT; 30 ng L228A RT; 30 ng W229A RT; 10 ng M230A RT; 30 ng G231A RT; 62.5 ng N474A RT; 1 μg Y501A RT; 100 ng A502F RT; 37.5 ng A508V RT; 38 ng HIV-1 group O RT. The reaction mixture was incubated for 1 h at 37°C, stopped by addition of EDTA and products were measured with a multilabel counter plate reader Victor 3 (Perkin Elmer model 1420–051) equipped with filters for 490/528 nm (excitation/emission wavelength)

Experiment [2] addresses T2, HIV-1 RT-associated RNase H activity, Y188L RT (Human immunodeficiency virus type 1 group M subtype B, UniProt P04585, Y775L).
T2 construct: The 1:1 ration between the p66/p51 subunits was also verified; made in house; host or cells: E. coli M15
As to the kind of experiment: RNase H activity assay, Y188L RT. Format: biochemical, HIV-1 group M subtype B. The procedure: as §1

Experiment [3] addresses T3, HIV-1 RT-associated RNase H activity, wt RT (Human immunodeficiency virus type 1 group M subtype B, UniProt P04585).
T3 construct: The 1:1 ration between the p66/p51 subunits was also verified; made in house; host or cells: E. coli M15
Nature of the experiment: biochemical. More on the design: species or system HIV-1 group M subtype B. The protocol:
as §1

Experiment [4] deals with T4, HIV-1 RT-associated RNase H activity, V108A RT (Human immunodeficiency virus type 1 group M subtype B, UniProt P04585, V695A).
T4 construct: The 1:1 ration between the p66/p51 subunits was also verified; made in house; host or cells: E. coli M15
As to the kind of experiment: RNase H activity assay, V108A RT. Format: biochemical, HIV-1 group M subtype B. The protocol: as §1

Experiment [5] addresses T5, HIV-1 RT-associated RNase H activity, L228A RT (Human immunodeficiency virus type 1 group M subtype B, UniProt P04585, L815A).
T5 construct: The 1:1 ration between the p66/p51 subunits was also verified; made in house; host or cells: E. coli M15
As to the kind of experiment: RNase H activity assay, L228A RT. Format: biochemical, HIV-1 group M subtype B. To be noted: for Fold of increase of RNase H IC50 with respect to wt RT: L228A RT. The protocol: as §1

In experiment [6] the target is HIV-1 RT-associated RNase H activity, HIV-1 group O RT (Human immunodeficiency virus type 1 group O, UniProt Q79666). As to the kind of experiment: RNase H activity assay, HIV-1 group O RT. Format: biochemical. To be noted: for IC50: Group O RT; for Fold increase in RNase H IC50 in comparison with wild-type HIV-1 group M subtype B RT: HIV-1 group O RT.
Text: Recombinant HIV-1 group O RT was expressed and purified as previously described. It was obtained as a heterodimer composed of subunits of 66 and 51 kDa, with a polyhistidine tag at the C-terminus of p66. For this purpose, the RT p66 subunit encoded within a p66RTB expression vector was co-expressed with the HIV-1 protease in E. coli XL-1 Blue, and the obtained heterodimers were then purified by ionic exchange followed by chromatography on Ni2+-nitriloacetic acid agarose. The enzyme was quantified by active site titration before biochemical studies.
as §1, with “5'-[…]-Fluorescin-3'” for “5'-GAUCUGAGCCUGGGAGCU-Fluorescin-3'”, “5'-Dabcyl-[…]-3'(HPLC,” for “5'-Dabcyl-AGCTCCCAGGCTCAGATC-3'(HPLC,”

Experiment [7] deals with T6, HIV-1 RT-associated RNase H activity, A508V RT (Human immunodeficiency virus type 1 group M subtype B, UniProt P04585, A1095V).
T6 construct: The 1:1 ration between the p66/p51 subunits was also verified; made in house; host or cells: E. coli M15
Nature of the experiment: RNase H activity assay, A508V RT. To be noted: for Fold of increase of RNase H IC50 with respect to wt RT: A508V RT. Format: biochemical, HIV-1 group M subtype B. The protocol:
as §1

Experiment [8] concerns the target T7, HIV-1 RT-associated RNase H activity, G231A RT (Human immunodeficiency virus type 1 group M subtype B, UniProt P04585, G818A).
T7 construct: The 1:1 ration between the p66/p51 subunits was also verified; made in house; host or cells: E. coli M15
As to the kind of experiment: RNase H activity assay, G231A RT. Format: biochemical, HIV-1 group M subtype B. The procedure: as §1

Experiment [9] deals with HIV-1 RT-associated RNase H activity, G231A RT. As to the kind of experiment: RNase H activity assay, G231A RT. Format: biochemical, HIV-1 group M subtype B. To be noted: G231A RT. The protocol: as §1
Experiment [10] has as its system HIV-1 RT-associated RNase H activity, F227A RT. As to the kind of experiment: RNase H activity assay, F227A RT. Format: biochemical, HIV-1 group M subtype B. To be noted: F227A RT. The protocol: as §1
In experiment [11] the target is T8, HIV-1 RT-associated RNase H activity, W229A RT (Human immunodeficiency virus type 1 group M subtype B, UniProt P04585, W816A).
T8 construct: The 1:1 ration between the p66/p51 subunits was also verified; made in house; host or cells: E. coli M15
As to the kind of experiment: RNase H activity assay, W229A RT. Format: biochemical, HIV-1 group M subtype B. Conditions: for Fold of increase of RNase H IC50 with respect to wt RT: W229A RT. The procedure: as §1

Experiment [12] deals with T9, HIV-1 RT-associated RNase H activity, Y188A RT (Human immunodeficiency virus type 1 group M subtype B, UniProt P04585, Y775A).
T9 construct: The 1:1 ration between the p66/p51 subunits was also verified; made in house; host or cells: E. coli M15
As to the kind of experiment: RNase H activity assay, Y188A RT. Format: biochemical, HIV-1 group M subtype B. To be noted: for Fold of increase of RNase H IC50 with respect to wt RT: Y188A RT. The protocol: as §1

Structures are written as SMILES. Several values for one entry are separate records, joined by “and”; a condition that tells them apart may be missing. Equal entries are not always repeated. Where two headings read alike, the source gives them in different places.

A word on the IC50: it is the point on the concentration scale where inhibition reaches its midpoint. As for `CC(C)c1ccc(O)c(=O)c(O)c1` [BTP, β-thujaplicinol, reference compound], the IC50 in [1] is 0.13 ± 0.06 µM; in experiment [2] (Y188L RT, read-out: IC50 RNase H), 0.08 ± 0.05 µM; in experiment [3] it was 0.19 ± 0.03 µM; in experiment [4] it was 0.18 ± 0.04 µM; in [5], 0.1 ± 0.06 µM; in experiment [6], 0.91 ± 0.01 µM. The IC50 in experiment [7] stood at 0.16 ± 0.05 µM; in [8], 0.25 ± 0.03 µM; in experiment [11], 0.15 ± 0.08 µM; in experiment [12] it was 0.19 ± 0.08 µM. Also, the “Fold of increase of RNase H IC50 with respect to wt RT” value (shortened to “Fold of increase of RNase H IC50”) in experiment [1] is 0.7; in experiment [5], 0.5; in experiment [7] it was 0.8; in experiment [9] it was 1.3; in [10], 1.2; in experiment [11], 0.8. The “Fold of increase of RNase H IC50” value in experiment [12] amounted to 1.0. In experiment [6], the “Fold increase in RNase H IC50 in comparison with wild-type HIV-1 group M subtype B RT” value is 5 to 6.5.
Regarding `N#Cc1ccc(-c2csc(NN=C3C(=O)Nc4ccccc43)n2)cc1` [RMNC6, (Z)-4-(2-(2-(2-oxoindolin-3-ylidene)hydrazinyl)thiazol-4-yl)benzonitrile], the IC50 in experiment [1] is 1.7 ± 0.2 µM; in [2] it was 1.6 ± 0.5 µM; in experiment [3], 1.3 ± 0.3 µM; in [4], 13.1 ± 2.5 µM; in [5] it was 1.5 ± 0.1 µM; in experiment [6], 8.5 ± 2.6 µM. Further, the IC50 in experiment [7] is 6.5 ± 0.7 µM; in experiment [8] it was 1.7 ± 0.4 µM; in [11] it was 1.9 ± 0.5 µM; in experiment [12], 3.3 ± 1.5 µM. For the same compound, the “Fold of increase of RNase H IC50” value in experiment [1] is on record as 1.3; in experiment [5], 1.1; in [7], 5.0; in experiment [9], 1.3; in experiment [10], 0.5; in [11], 1.5. The “Fold of increase of RNase H IC50” value in experiment [12] was found to be 2.5. The “Fold increase in RNase H IC50 in comparison with wild-type HIV-1 group M subtype B RT” value in experiment [6] is 6.5 and 5 to 6.5.

These data come from publication PMC4723341, “Ribonuclease H/DNA Polymerase HIV-1 Reverse Transcriptase Dual Inhibitor: Mechanistic Studies on the Allosteric Mode of Action of Isatin-Based Compound RMNC6” (PLoS ONE, 2016).
